The source of these data is US20240197727A1, “SOLID DISPERSIONS COMPRISING AMORPHOUS PIMOBENDAN AND ONE OR MORE STABILIZING POLYMERS” (Boehringer Ingelheim Vetmedica GmbH, priority 2022, published 2024).

What is called solubility (thermodynamic) is solubility found after equilibrating the solid with the medium.

Series [1] is described as follows: Thermodynamic (equilibrium) solubility at 37° C., immersed UV probes. The class given is physicochemical. To be noted: aqueous buffer, thermodynamic from solid.
For series [2] the following is noted: pH 5; cited from earlier work.

Converted amounts (≈) assume the structure as drawn.

Consider `COc1ccc(-c2nc3ccc(C4=NNC(=O)CC4C)cc3[nH]2)cc1` (stereo not drawn) [Crystalline pimobendan], for which the thermodynamic solubility in series [1] (pH 3.0 (maleic acid buffer)) came out at 19.5 µg/mL (≈ 58.3 µM); in series [1] (pH 6.5 (phosphate buffer)) it was 0.3 µg/mL (≈ 0.897 µM). In addition, in series [2], the “Solubility (amount that dissolves) in water” value is “about 1 mg/liter”.
